Test results reported in patent US20160319277A1, “METHODS OF IMPROVED PROTEIN PRODUCTION USING MIRNAs AND SIRNAs” (THE JOHNS HOPKINS UNIVERSITY, priority 2015, published 2016).

System: HEK-CMV-Luc2-Hygro cells
Test: High-throughput genome-wide siRNA screen and validation screen for luciferase expression
Type: cell-based, human
Settings: Table 3, primary screen, 72 h; for per_cell: per cell luciferase yield relative to negative control; for VIA: viable cell density as % of negative control
Procedure: The Silencer Select™ Human genome siRNA library (Ambion), which targets 21,585 human genes with 3 siRNAs per gene, was used for screening. Each siRNA is arrayed in an individual well (Corning 3570, 384 well, white, solid bottom plates). The transfection was done in duplicates: 0.8 pmol of each siRNA was spotted to a well of a 384-well plate (Corning) and 20 μL of serum-free DMEM containing 0.07 μL of Lipofectamine™ RNAiMax (Life Technologies) was then added to each well. This lipid-siRNA mixture was incubated at ambient temperature for 30 min prior to addition of 4000 cells in 20 μL of DMEM containing 20% FBS (Gibco). After incubating the transfected cells at 37° C. in 5% CO2 for 72 hours, 20 μL of ONE-Glo™ Reagent (Promega) was added to one set of replicates for ‘overall luciferase yield’ quantification and 20 μL of CellTiter-Glo™ Reagent (Promega) was added to the second set of replicates for ‘viable cell density’ measurement. All plates were incubated at room temperature for 20 minutes to stabilize the luminescent signal and the signal was then measured with PerkinElmer Envision 2104 Multilabel™ plate reader.
The 56 genes which got targeted by at least two independent siRNAs (out of three) resulting in enhanced luciferase production with MAD-based z-score>3 from the primary screen were subjected to validation screen using 3 additional Silencer™ siRNAs (Ambion) with different sequences from those used in the primary screen. […] The transfection and assay processes were-the same as the primary genome-wide screen. Data visualization was performed in R computational environment (available on the World Wide Web at R-project.org/) by using ‘hexbin’ and ‘ggplot2’ packages.
The screen generated end-point data for ‘overall luciferase yield’ and ‘viable cell density’ in each well. For each plate, the median value of the negative control wells was set as 100% and was used to normalize corresponding sample wells. The ‘overall luciferase yield’ and ‘viable cell density’ were exported as % of negative control and the median absolute deviation (MAD)-based z-score was calculated for each sample.

Substance	per_cell	VIA
38 (GCAGUGGACAUAGAAGAGATT; chemistry not given here; listed as Homo sapiens) [compound 38]	140.7	110.8
39 (CGCUUUAACUGGAAGCUCUTT; chemistry not given here; listed as Homo sapiens) [compound 39]	147	103.7
40 (CGAUGUUCGUGGACAUUCUTT; chemistry not given here; listed as Homo sapiens) [compound 40]	234.6	80.01
41 (CAACAGUACUUACCGAUGUTT; chemistry not given here; listed as Homo sapiens) [compound 41]	141.8	115.5
42 (CAAGUCACCUGUUACCUCATT; chemistry not given here; listed as Homo sapiens) [compound 42]	171.8	88.96
43 (GCUAAGUCUUUUCCACAGUTT; chemistry not given here; listed as Homo sapiens) [compound 43]	155.4	94.54
44 (CAACAGAUCAGAGAACAAATT; chemistry not given here; listed as Homo sapiens) [compound 44]	156.4	92.43
45 (GGAUAUUGGAGGCUAGUCATT; chemistry not given here; listed as Homo sapiens) [compound 45]	157.9	89.68
46 (CUCUUAUGGUAACCAAUGATT; chemistry not given here; listed as Homo sapiens) [compound 46]	160.2	91.56
47 (GUACCUGCGGGAUUACUCATT; chemistry not given here; listed as Homo sapiens) [compound 47]	160.7	90.99
48 (GCAAUGCUUGCAAAACUCATT; chemistry not given here; listed as Homo sapiens) [compound 48]	189.3	90.98
49 (CGAAACUUGUCAACGGGAATT; chemistry not given here; listed as Homo sapiens) [compound 49]	179.2	104.6
50 (GGAGGAAUCUCGAAUGCGATT; chemistry not given here; listed as Homo sapiens) [compound 50]	173.3	96
51 (CCAGCGAUACAACUCCUAUTT; chemistry not given here; listed as Homo sapiens) [compound 51]	176.8	83.64
52 (GGAAGAACGUCUUGCACAATT; chemistry not given here; listed as Homo sapiens) [compound 52]	183.1	85.47
53 (GAACAAAAUAGACCUCUUATT; chemistry not given here; listed as Homo sapiens) [compound 53]	162.7	101.9
54 (GCAUCUGUCCGAUCGCUCUTT; chemistry not given here; listed as Homo sapiens) [compound 54]	143.9	105.5
55 (CAACGGGACUAUUAUGAUATT; chemistry not given here; listed as Homo sapiens) [compound 55]	163.4	89.58
56 (CAACGGGACUAUUAUGAUATT; chemistry not given here; listed as Homo sapiens) [compound 56]	163.5	97.39
57 (GAACGAGUACAGCAAUAUATT; chemistry not given here; listed as Homo sapiens) [compound 57]	140.9	108.2
58 (ACAGGUCUUUAUCAAAGCATT; chemistry not given here; listed as Homo sapiens) [compound 58]	3.426	100.2
59 (AGAUCUUUGUCAAGGUGUATT; chemistry not given here; listed as Homo sapiens) [compound 59]	153.4	96.26
60 (GGCGAAUGCUCCUGACUAATT; chemistry not given here; listed as Homo sapiens) [compound 60]	157	103.9

Substance	per_cell	VIA
61 (GGACGGAAGCGAAAAUCGATT; chemistry not given here; listed as Homo sapiens) [compound 61]	216.2	71.47
62 (AGGUCAAUGUGACUUUCCATT; chemistry not given here; listed as Homo sapiens) [compound 62]	161.8	105
63 (CCUGGACAGUUUGAAGCAATT; chemistry not given here; listed as Homo sapiens) [compound 63]	174.9	88.01
64 (GAUCGUUUGAGAGAACAAATT; chemistry not given here; listed as Homo sapiens) [compound 64]	210.3	77.11
65 (GCCUAGGAGUUAUCCUCUATT; chemistry not given here; listed as Homo sapiens) [compound 65]	137.6	112.2
66 (GCAACAGAAUCGAGCAAGATT; chemistry not given here; listed as Homo sapiens) [compound 66]	154.3	105.6
67 (GGAUGACGAGCUGAACUUUTT; chemistry not given here; listed as Homo sapiens) [compound 67]	140.1	113.4
68 (CAGGUAGUGUAAGCCCUCATT; chemistry not given here; listed as Homo sapiens) [compound 68]	303	66.87
69 (CCCUCCUACUAUUACCCGUTT; chemistry not given here; listed as Homo sapiens) [compound 69]	163	96.87
70 (GAUUAUCCUUGUACUUUGATT; chemistry not given here; listed as Homo sapiens) [compound 70]	141.8	101.9
71 (GAUUACUUCUUGACUAUCATT; chemistry not given here; listed as Homo sapiens) [compound 71]	150.8	123.2
72 (GCUCCUCUGUUACCACAGATT; chemistry not given here; listed as Homo sapiens) [compound 72]	179.3	91.53
73 (GUCCGAGUGUGGUUCUGUATT; chemistry not given here; listed as Homo sapiens) [compound 73]	180.4	85.82
74 (CUUCGACAGUACUUCCGGATT; chemistry not given here; listed as Homo sapiens) [compound 74]	161.6	104
75 (GCUCAUCGACAUCAAAGUUTT; chemistry not given here; listed as Homo sapiens) [compound 75]	170.1	97.01
76 (CUUUUAAUGUUAAACUACATT; chemistry not given here; listed as Homo sapiens) [compound 76]	133.6	111
77 (CAAUGGAACAAUCAAAGUUTT; chemistry not given here; listed as Homo sapiens) [compound 77]	180.8	89.61
78 (CGGAAUCAAUGAUCCUGUATT; chemistry not given here; listed as Homo sapiens) [compound 78]	212.7	71.39
79 (AAGUCAACAUAGCCCGAAATT; chemistry not given here; listed as Homo sapiens) [compound 79]	145.7	111.5
80 (CAAUGAUUCUUACCCUCAATT; chemistry not given here; listed as Homo sapiens) [compound 80]	257.9	77.17
81 (GUUUCAUCUGGGUUCGCUATT; chemistry not given here; listed as Homo sapiens) [compound 81]	233.6	62.66
82 (GUCCUAUCACCGUAUCUUATT; chemistry not given here; listed as Homo sapiens) [compound 82]	266.6	55.96
